The assay has as its system COS Cell. Briefly: COS Cell IC50 (Cell-Based Assay). Particulars: procedure of WO 95/10516. The procedure:
FPT IC50 (inhibition of farnesyl protein transferase, in vitro enzyme assay) and COS Cell IC50 (Cell-Based Assay) were determined following the assay procedures described in WO 95/10516, published April 20, 1995. GGPT IC50 (inhibition of geranylgeranyl protein transferase, in vitro enzyme assay), Cell Mat Assay, and anti-tumor activity (in vivo anti-tumor studies) could be determined by the assay procedures described in WO 95/10516. The disclosure of WO 95/10516 is incorporated herein by reference thereto.

The structures appear in SMILES notation.

As usually defined, the IC50 is the concentration that gives 50% inhibition. A high value points to weaker potency in that assay. The molecule `NC(=O)N1CC[C@@H](CC(=O)N2CCC(C3c4ncc(Br)cc4CCc4cc(Cl)cc(Cl)c43)CC2)C1` (stereo partly drawn) [Example 2, 3(S) -[2-(4-(3-bromo-8,10-dichloro-6-11-dihydro-5-H-benzo[5,6]-cyclohepta[1,2-b]pyridin-11-yl)-1-piperidinyl]-2-oxoethyl]-1-pyrrolidinecarboxamide] gave an IC50 of 30 nM.

The values are drawn from patent publication EP0927178B1, “TRICYCLIC COMPOUNDS USEFUL FOR INHIBITION OF G-PROTEIN FUNCTION AND FOR TREATMENT OF PROLIFERATIVE DISEASES” (SCHERING CORPORATION, priority 1996, dated 1998).
